Melting point and MIC data for 13 compounds are collected here from patent US20040142981A1, “Antibacterial benzoic acid derivatives” (priority 2002, published 2004).

For one series, the system named is SAUR 9218. Put plainly: MIC by standard agar dilution method. Format: cell-based. As to conditions: Mueller Hinton agar, incubated overnight at 35° C., lowest concentration that inhibits visible growth. Here is the method: MIC Test Method The in vitro MICs of test compounds were determined by a standard agar dilution method. A stock drug solution of each analog was prepared in the preferred solvent, usually DMSO:H2O (1:3). Serial 2-fold dilutions of each sample are made using 1.0 ml aliquots of sterile distilled water. To each 1.0 ml aliquot of drug was added 9 ml of molten Mueller Hinton agar medium. The drug-supplemented agar was mixed, poured into 15×100 mm petri dishes, and allowed to solidify and dry prior to inoculation. Vials of each of the test organisms are maintained frozen in the vapor phase of a liquid nitrogen freezer. Test cultures are grown overnight at 35° C. on the medium appropriate for the organism. Colonies are harvested with a sterile swab, and cell suspensions are prepared in Trypticase Soy broth (TSB) to equal the turbidity of a 0.5 McFarland standard. A 1:20 dilution of each suspension was made in TSB. The plates containing the drug supplemented agar are inoculated with a 0.001 ml drop of the cell suspension using a Steers replicator, yielding approximately 10^4 to 10^5 cells per spot. The plates are incubated overnight at 35° C. Following incubation the Minimum Inhibitory Concentration (MIC μg/ml), the lowest concentration of drug that inhibits visible growth of the organism, was read and recorded.

Converted amounts (≈) assume the structure as drawn. Bounds are passed on as bounds.

A word on the melting point: it is the temperature, or range, at which the solid turns liquid. In general, MIC refers to the smallest concentration in the dilution series that meets the test's criterion for growth inhibition. Read a low MIC as greater potency. In turn, `O=C(Nc1ccc(Br)cc1-c1nnn[nH]1)c1cccc(S(=O)(=O)N2CCOCC2)c1` [Example 17, N-[4-bromo-2-(1H-tetraazol-5-yl)phenyl]-3-(morpholin-4-ylsulfonyl)benzamide] had a melting point of 228 to 230 °C. The same compound had an MIC in the series with SAUR 9218 of 64 µg/mL (≈ 130 µM).
For `N#Cc1ccc(NC(=O)c2cccc(S(=O)(=O)N3CCOCC3)c2)c(-c2nnn[nH]2)c1` [Example 20, N-[4-cyano-2-(1H-tetraazol-5-yl)phenyl]-3-(morpholin-4-ylsulfonyl)benzamide], in that order: 230 to 232 °C and 64 µg/mL (≈ 146 µM).
The compound `N#Cc1ccc(NC(=O)c2ccc(S(=O)(=O)N3CCc4cc(Cl)ccc43)cc2)c(-c2n[nH]c(=O)o2)c1` [Example 22, 4-[(5-chloro-2,3-dihydro-1H-indol-1-yl)sulfonyl]-N-[4-cyano-2-(5-oxo-4,5-dihydro-1,3,4-oxadiazol-2-yl)phenyl]benzamide] returned a melting point of 262 to 264 °C. Further, in the series on SAUR 9218, the minimum inhibitory concentration (MIC) was 32 µg/mL (≈ 61.3 µM).
In the case of `N#Cc1ccc(NC(=O)c2cccc(S(=O)(=O)N3CCOCC3)c2)c(-c2n[nH]c(=O)o2)c1` [Example 18, N-[4-cyano-2-(5-oxo-4,5-dihydro-1,3,4-oxadiazol-2-yl)phenyl]-3-(morpholin-4-ylsulfonyl)benzamide], the melting point is 283 to 285 °C. In the series with SAUR 9218, this compound registered an MIC greater than 128 µg/mL.
`O=C(Nc1ccc(Br)cc1-c1noc(=O)[nH]1)c1cccc(S(=O)(=O)N2CCOCC2)c1` [Example 19, N-[4-bromo-2-(5-oxo-4,5-dihydro-1,2,4-oxadiazol-3-yl)phenyl]-3-(morpholin-4-ylsulfonyl)benzamide] came in with a melting point of 220 to 223 °C. This compound returned an MIC against SAUR 9218 of 128 µg/mL (≈ 251 µM).
`N#Cc1ccc(NC(=O)c2cc3cccc(S(=O)(=O)c4ccccc4)c3[nH]2)c(-c2nnn[nH]2)c1` [Example 25, N-[4-cyano-2-(1H-tetraazol-5-yl)phenyl]-7-(phenylsulfonyl)-1H-indole-2-carboxamide]: the melting point fell in the range of 293 to 295 °C. The same compound came in with an MIC with SAUR 9218 of 0.125 µg/mL (≈ 0.266 µM).
`CC(C)(C)C(=O)OCn1nnc(-c2cc(Br)ccc2NC(=O)c2cccc(S(=O)(=O)N3CCOCC3)c2)n1` [Example 21, [5-(5-bromo-2-{[3-(morpholin-4-ylsulfonyl)benzoyl]amino}phenyl)-2H-tetraazol-2-yl]methyl pivalate]: the melting point lay within 210 to 212 °C. The compound further gave an MIC with SAUR 9218 greater than 64 µg/mL.
On to `N#Cc1ccc(NC(=O)c2ccc(S(=O)(=O)N3CCc4cc(Cl)ccc43)cc2)c(-c2n[nH]c(=S)o2)c1` [Example 23, 4-[(5-chloro-2,3-dihydro-1H-indol-1-yl)sulfonyl]-N-[4-cyano-2-(5-thioxo-4,5-dihydro-1,3,4-oxadiazol-2-yl)phenyl]benzamide], for which the melting point was 225 to 229 °C. This compound came in with an MIC against SAUR 9218 of 8 µg/mL (≈ 14.9 µM).
`O=C(Nc1ccc(Br)cc1-c1noc(=O)[nH]1)c1cccc(Oc2ccccc2)c1` [Example 16, N-[4-Bromo-2-(5-oxo-4,5-dihydro-1,2,4-oxadiazol-3-yl)phenyl]-3-phenoxybenzamide] yielded a melting point of 185 to 187 °C. In the series on SAUR 9218, this compound gave an MIC of 16 µg/mL (≈ 35.4 µM).
With `O=C(Nc1ccc(Br)cc1-c1noc(=O)[nH]1)c1cccc(S(=O)(=O)N2CCc3cc(Cl)ccc32)c1` [Example 1, N-[4-Bromo-2-(5-oxo-4,5-dihydro-1,2,4-oxadiazol-3-yl)phenyl]-3-[(5-chloro-2,3-dihydro-1H-indol-1-yl)sulfonyl]benzamide], inhibition of growth in the series on SAUR 9218 (MIC) required 4 µg/mL (≈ 6.95 µM).
Still for that read-out and setting: then `O=C(Nc1ccc(Br)cc1-c1noc(=O)[nH]1)c1cccc(OCc2ccccc2)c1` [Example 10, 3-(Benzyloxy)-N-[4-bromo-2-(5-oxo-4,5-dihydro-1,2,4-oxadiazol-3-yl)phenyl]benzamide], with 8 µg/mL (≈ 17.2 µM); and `CN(c1ccc(Cl)cc1)S(=O)(=O)c1ccc(C(=O)Nc2ccc(Br)cc2-c2noc(=O)[nH]2)cc1` [Example 6, N-[4-Bromo-2-(5-oxo-4,5-dihydro-1,2,4-oxadiazol-3-yl)phenyl]-4-{[(4-chlorophenyl)(methyl)amino]sulfonyl}benzamide], with 16 µg/mL (≈ 28.4 µM).
For the compound `CC(C)Sc1ccc(C(=O)Nc2ccc(Br)cc2-c2noc(=O)[nH]2)cn1` [Example 31, N-[4-bromo-2-(5-oxo-4,5-dihydro-1,2,4-oxadiazol-3-yl)phenyl]-6-(isopropylthio)nicotinamide], the minimum inhibitory concentration (MIC) against SAUR 9218 came to 8 µg/mL (≈ 18.4 µM).
